Experiments:
[1] = logP by HPLC on reversed-phase columns (C 18), EEC Directive 79/831 Annex V.A8; type: physicochemical; settings: reversed-phase HPLC column (C 18), pH 2.7, HPLC, reversed-phase C 18, acidic range pH 2.7; table of compounds; read-out: log P
Method: The logP values reported in the table above and in the Preparation Examples were determined in accordance with EEC Directive 79/831 Annex V.A8 by HPLC (High Performance Liquid Chromatography) on reversed-phase columns (C 18), with the following methods: The LC-MS determination in the acidic range is carried out at pH 2.7 using the mobile phases 0.1% aqueous formic acid and acetonitrile (contains 0.1% formic acid), linear gradient from 10% acetonitrile to 95% acetonitrile Calibration was carried out using unbranched alkan-2-ones (having from 3 to 16 carbon atoms) with known logP values (the logP values were determined by the retention times using linear interpolation between two successive alkanones).

Spodoptera frugiperda = Spodoptera frugiperda test (SPODFR spray treatment); type: in vivo; settings: foliar, 168 h, sprayed maize leaf discs, after 7 days, read-out: effect in % (caterpillars killed)
Method: Solvents: 78.0 parts by weight of acetone 1.5 parts by weight of dimethylformamide Emulsifier: 0.5 part by weight of alkylaryl polyglycol ether To produce a suitable preparation of active compound, 1 part by weight of active compound is mixed with the stated amount of solvents and emulsifier, and the concentrate is diluted with emulsifier-containing water to the desired concentration. Discs of maize leaves (Zea mays) are sprayed with an active compound preparation of the desired concentration and, after drying, populated with caterpillars of the armyworm (Spodoptera frugiperda). After 7 days, the effect in % is determined 100% means that all caterpillars have been killed; 0% means that none of the caterpillars have been killed.

Phaedon cochleariae = assay: Phaedon test (PHAECO spray treatment); type: in vivo; settings: 168 h, sprayed Chinese cabbage discs, after 7 days, read-out: activity in % (beetle larvae killed)
Method: Solvents: 78.0 parts by weight of acetone 1.5 parts by weight of dimethylformamide Emulsifier: 0.5 part by weight of alkylaryl polyglycol ether To produce a suitable preparation of active compound, 1 part by weight of active compound is mixed with the stated amount of solvents and emulsifier, and the concentrate is diluted with emulsifier-containing water to the desired concentration. Discs of Chinese cabbage (Brassica pekinensis) are sprayed with an active compound preparation of the desired concentration and, after drying, populated with larvae of the mustard beetle (Phaedon cochleariae). After 7 days, the activity in % is determined. 100% means that all beetle larvae have been killed; 0% means that none of the beetle larvae have been killed.

Lucilia cuprina = Lucilia cuprina test (LUCICU); type: in vivo; settings: 48 h, treated horse meat, larvae, after 2 days, read-out: kill in %
Method: Solvent: dimethyl sulphoxide To produce a suitable preparation of active compound, 10 mg of active compound are mixed with 0.5 ml of dimethyl sulphoxide and the concentrate is diluted with water to the desired concentration. Vessels containing horse meat treated with the active compound preparation of the desired concentration are populated with about 20 Lucilia cuprina larvae. After 2 days, the kill in % is determined. 100% means that all of the larvae have been killed; 0% means that none of the larvae have been killed.

Boophilus microplus = Boophilus microplus test (BOOPMI injection); type: in vivo; settings: 20 μg/animal, injection into the abdomen, after 7 days
Method: Solvent: dimethyl sulphoxide To produce a suitable preparation of active compound, 10 mg of active compound are mixed with 0.5 ml of solvent and the concentrate is diluted with solvent to the desired concentration. The active compound solution is injected into the abdomen (Boophilus microplus), and the animals are transferred into dishes and stored in a climate-controlled room. The activity is assessed by […] of fertile eggs. After 7 days, the effect in % is determined. 100% means that none of the ticks has laid any fertile eggs.

| Structure (SMILES) | chromatographic logP [1] | pest or weed control at 100 g/ha (Spodoptera frugiperda) [%] | pest or weed control at 100 g/ha (Phaedon cochleariae) [%] | pest or weed control at 100 ppm (Lucilia cuprina) [%] | effect in % (no fertile eggs laid) (Boophilus microplus) [%] |
| --- | --- | --- | --- | --- | --- |
| Cc1cc(C#N)cc(C(=O)NC(C)C)c1NC(=O)c1sc(Cn2nnc(C(F)(F)F)n2)nc1-c1ccccc1Cl [Compound 25] | 3.7 | 100 | 100 | – | – |
| Cc1cc(Br)cc(C(=O)NC(C)(C)C)c1NC(=O)c1sc(Cn2nnc(C(F)(F)F)n2)nc1-c1ccccc1Cl [Compound 26] | 4.69 | 100 | 100 | – | – |
| Cc1cc(Cl)cc(C(=O)NC(C)(C)C)c1NC(=O)c1sc(Cn2nnc(C(F)(F)F)n2)nc1-c1ccccc1Cl [Compound 27] | 4.59 | 100 | 100 | – | – |
| Cc1cc(C#N)cc(C(=O)NC(C)(C)C)c1NC(=O)c1sc(Cn2nnc(C(F)(F)F)n2)nc1-c1ccccc1Cl [Compound 30] | 4.07 | 100 | 100 | – | – |
| Cc1cc(Cl)cc(C(=O)NC(C)C)c1NC(=O)c1sc(Cn2nnc(C(F)(F)F)n2)nc1-c1ccccc1Cl [Compound 32] | 4.15 | 100 | 100 | – | – |
| Cc1cc(Cl)cc(C(=O)NC(C)C)c1NC(=O)c1cnc(Cn2nnc(C(F)(F)F)n2)nc1-c1ccccc1Cl [Compound 34] | 3.91 | 100 | 100 | 100 | 100 |
| Cc1cc(Cl)cc(C(N)=O)c1NC(=O)c1cnc(Cn2nnc(C(F)(F)F)n2)nc1-c1ccccc1Cl [Compound 35] | 3.01 | 100 | 100 | 100 | 98 |
| CNC(=O)c1cc(Cl)cc(C)c1NC(=O)c1cnc(Cn2nnc(C(F)(F)F)n2)nc1-c1ccccc1Cl [Compound 36] | 3.31 | 100 | 100 | – | – |
| CNC(=O)c1cc(C#N)cc(C)c1NC(=O)c1cnc(Cn2nnc(C(F)(F)F)n2)nc1-c1ccccc1Cl [Compound 38] | 2.93 | 100 | 100 | 100 | 100 |
| Cc1cc(C#N)cc(C(=O)NC(C)(C)C)c1NC(=O)c1cnc(Cn2nnc(C(F)(F)F)n2)nc1-c1ccccc1Cl [Compound 39] | 3.85 | 100 | 100 | 100 | 100 |
| Cc1cc(C#N)cc(C(N)=O)c1NC(=O)c1cnc(Cn2nnc(C(F)(F)F)n2)nc1-c1ccccc1Cl [Compound 40] | 2.69 | 100 | 100 | 100 | 100 |
| Cc1cc(Cl)cc(C(=O)NC(C)(C)C)c1NC(=O)c1cnc(Cn2nnc(C(F)(F)F)n2)nc1-c1ccccc1Cl [Compound 41] | 4.33 | 100 | 100 | 100 | 100 |
| CNC(=O)c1cc(Cl)cc(C)c1NC(=O)c1cc(Cn2nnc(C(F)(F)C(F)(F)F)n2)cn1-c1ccccc1Cl [Compound 44] | 4.09 | 100 | 100 | – | – |

— US8980886B2, “Anthranilic acid derivatives” (Bayer Cropscience AG, priority 2010, dated 2015)
